Laboratory results from ChEMBL document CHEMBL3774347, “Docking and Linking of Fragments To Discover Jumonji Histone Demethylase Inhibitors” (J Med Chem, 2016).

How the values were obtained:
[1] = target: T1, Lysine-specific demethylase 3A (Homo sapiens, UniProt Q9Y4C1); experiment: Inhibition of KDM3A (unknown origin) expressed in Escherichia coli using H3 (1 to 21 residues) K9Me2-GGK-Biotin KDM3A Cognate Ligand/10 uM alpha-ketoglutarate as substrate/cofactor preincubated for 5 mins followed by substrate addition measured after 20 mins by alphascreen assay
T1 sequence (Q9Y4C1 whole entry): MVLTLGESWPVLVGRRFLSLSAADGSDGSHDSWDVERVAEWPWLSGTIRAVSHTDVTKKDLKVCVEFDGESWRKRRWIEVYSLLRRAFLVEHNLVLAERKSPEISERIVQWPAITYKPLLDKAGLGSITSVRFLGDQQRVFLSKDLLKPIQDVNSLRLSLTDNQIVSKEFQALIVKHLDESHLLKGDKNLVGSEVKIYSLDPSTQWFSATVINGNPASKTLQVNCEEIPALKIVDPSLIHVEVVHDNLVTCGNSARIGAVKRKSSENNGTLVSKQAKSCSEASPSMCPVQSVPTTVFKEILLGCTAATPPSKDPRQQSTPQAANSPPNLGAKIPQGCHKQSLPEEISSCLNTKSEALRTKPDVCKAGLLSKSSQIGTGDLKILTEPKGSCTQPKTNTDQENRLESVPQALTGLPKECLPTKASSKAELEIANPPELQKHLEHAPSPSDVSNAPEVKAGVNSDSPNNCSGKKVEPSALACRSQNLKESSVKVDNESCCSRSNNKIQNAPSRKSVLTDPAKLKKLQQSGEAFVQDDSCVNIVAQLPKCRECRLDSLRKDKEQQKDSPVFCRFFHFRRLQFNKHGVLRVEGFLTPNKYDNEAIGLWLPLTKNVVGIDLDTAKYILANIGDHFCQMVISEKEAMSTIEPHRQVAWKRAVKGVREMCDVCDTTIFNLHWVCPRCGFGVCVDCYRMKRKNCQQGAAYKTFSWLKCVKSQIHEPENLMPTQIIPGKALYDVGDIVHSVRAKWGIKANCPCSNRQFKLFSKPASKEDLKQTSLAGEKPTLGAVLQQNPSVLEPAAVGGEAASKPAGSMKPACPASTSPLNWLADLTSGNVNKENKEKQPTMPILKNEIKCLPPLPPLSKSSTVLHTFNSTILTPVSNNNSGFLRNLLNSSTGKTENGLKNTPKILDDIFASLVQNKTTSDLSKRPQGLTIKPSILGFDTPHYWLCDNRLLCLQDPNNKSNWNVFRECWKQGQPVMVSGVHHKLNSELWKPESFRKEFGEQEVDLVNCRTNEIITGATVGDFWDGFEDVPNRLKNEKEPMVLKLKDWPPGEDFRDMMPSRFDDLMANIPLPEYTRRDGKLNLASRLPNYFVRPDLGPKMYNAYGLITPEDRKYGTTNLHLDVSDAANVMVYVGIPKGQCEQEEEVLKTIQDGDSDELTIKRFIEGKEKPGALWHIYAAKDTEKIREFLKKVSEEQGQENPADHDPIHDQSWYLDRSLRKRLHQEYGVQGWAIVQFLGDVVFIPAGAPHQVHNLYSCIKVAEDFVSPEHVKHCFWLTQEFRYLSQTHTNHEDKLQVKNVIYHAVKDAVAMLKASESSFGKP

[2] = target: Lysine-specific demethylase 5B (Homo sapiens, UniProt Q9UGL1); experiment: Inhibition of KDM5B (unknown origin) expressed in Escherichia coli using H3 (1 to 21 residues) K4Me3-GGK-Biotin KDM5B Cognate Ligand/10 uM alpha-ketoglutarate as substrate/cofactor preincubated for 5 mins followed by substrate addition measured after 20 mins by alphascreen assay
Chain of Lysine-specific demethylase 5B (Q9UGL1 whole entry, the tested form may be a part): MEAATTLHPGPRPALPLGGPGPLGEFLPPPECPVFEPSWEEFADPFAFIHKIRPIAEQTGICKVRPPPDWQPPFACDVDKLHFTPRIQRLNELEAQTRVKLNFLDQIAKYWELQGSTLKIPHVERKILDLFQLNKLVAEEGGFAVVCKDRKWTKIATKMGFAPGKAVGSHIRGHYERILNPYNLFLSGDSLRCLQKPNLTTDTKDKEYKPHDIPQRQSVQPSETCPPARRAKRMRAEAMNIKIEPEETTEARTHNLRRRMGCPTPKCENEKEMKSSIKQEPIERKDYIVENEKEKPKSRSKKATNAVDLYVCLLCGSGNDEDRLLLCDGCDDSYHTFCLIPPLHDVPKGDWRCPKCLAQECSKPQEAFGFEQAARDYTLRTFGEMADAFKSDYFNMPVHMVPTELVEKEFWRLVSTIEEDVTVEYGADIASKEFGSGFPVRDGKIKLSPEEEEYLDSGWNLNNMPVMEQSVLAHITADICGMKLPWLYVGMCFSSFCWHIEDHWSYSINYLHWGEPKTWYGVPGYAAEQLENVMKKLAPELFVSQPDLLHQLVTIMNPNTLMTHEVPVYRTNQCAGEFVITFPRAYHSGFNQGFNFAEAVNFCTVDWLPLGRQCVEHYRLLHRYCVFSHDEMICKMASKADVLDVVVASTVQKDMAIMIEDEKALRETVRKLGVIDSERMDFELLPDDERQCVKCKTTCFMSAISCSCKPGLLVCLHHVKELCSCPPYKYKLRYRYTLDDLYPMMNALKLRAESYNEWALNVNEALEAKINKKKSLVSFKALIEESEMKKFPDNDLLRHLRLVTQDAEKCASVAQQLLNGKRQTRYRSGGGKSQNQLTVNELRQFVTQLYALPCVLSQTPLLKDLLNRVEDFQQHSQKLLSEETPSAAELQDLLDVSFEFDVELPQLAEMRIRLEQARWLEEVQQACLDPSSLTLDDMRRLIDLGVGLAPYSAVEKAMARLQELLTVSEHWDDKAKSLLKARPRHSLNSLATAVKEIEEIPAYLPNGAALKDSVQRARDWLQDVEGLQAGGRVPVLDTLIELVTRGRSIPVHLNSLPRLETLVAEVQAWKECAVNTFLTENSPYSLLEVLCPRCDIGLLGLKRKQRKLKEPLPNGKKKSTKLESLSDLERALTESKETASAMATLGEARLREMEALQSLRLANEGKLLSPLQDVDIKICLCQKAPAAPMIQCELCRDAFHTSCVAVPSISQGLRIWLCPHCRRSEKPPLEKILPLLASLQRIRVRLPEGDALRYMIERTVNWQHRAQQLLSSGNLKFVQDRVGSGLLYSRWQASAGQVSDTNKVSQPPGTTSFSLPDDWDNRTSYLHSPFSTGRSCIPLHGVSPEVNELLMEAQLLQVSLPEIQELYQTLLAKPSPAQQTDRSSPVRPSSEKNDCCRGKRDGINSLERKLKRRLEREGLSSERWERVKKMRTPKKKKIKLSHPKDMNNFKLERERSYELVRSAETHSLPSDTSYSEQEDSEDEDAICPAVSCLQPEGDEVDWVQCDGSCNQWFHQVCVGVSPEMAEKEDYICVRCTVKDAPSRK

[3] = target: Hypoxia-inducible factor 1-alpha inhibitor (Homo sapiens, UniProt Q9NWT6); experiment: Inhibition of N-terminal His6-tagged full-length FIH (unknown origin) expressed in Escherichia coli Rosetta 2(DE3)pLysS using SMDESGLPQLTSYDCEVNAPIQGSRNLLQGEELLRALDQVN peptide/100 uM alpha-ketoglutarate as substrate/cofactor incubated for 45 mins by MALDI assay
Chain of Hypoxia-inducible factor 1-alpha inhibitor (Q9NWT6 whole entry, the tested form may be a part): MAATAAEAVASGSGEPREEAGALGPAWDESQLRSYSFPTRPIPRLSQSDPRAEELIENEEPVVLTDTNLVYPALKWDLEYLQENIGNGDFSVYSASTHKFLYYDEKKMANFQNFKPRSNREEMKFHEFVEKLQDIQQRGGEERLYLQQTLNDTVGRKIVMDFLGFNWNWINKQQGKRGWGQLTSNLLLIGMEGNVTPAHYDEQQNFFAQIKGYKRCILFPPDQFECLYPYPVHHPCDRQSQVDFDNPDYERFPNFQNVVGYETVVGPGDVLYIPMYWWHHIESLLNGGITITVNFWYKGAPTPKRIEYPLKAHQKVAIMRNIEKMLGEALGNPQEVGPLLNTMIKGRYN

[4] = target: Lysine-specific demethylase 6B (Homo sapiens, UniProt O15054); experiment: Inhibition of KDM6B (unknown origin) expressed in Escherichia coli using H3 (21 to 44 residues) K27Me3-GGK-Biotin JMJD3 Cognate Ligand/10 uM alpha-ketoglutarate as substrate/cofactor preincubated for 5 mins followed by substrate addition measured after 5 mins by alphascreen assay
[5] = target: Lysine-specific demethylase 5A (Homo sapiens, UniProt P29375); experiment: Inhibition of KDM5A (1 to 797 residues) (unknown origin) expressed in insect sf21 cells using ARTK(Me3)QTARKSTGGKAPRK peptide/ 100 uM alpha-ketoglutarate as substrate/cofactor incubated for 45 mins by MALDI assay
Chain of Lysine-specific demethylase 5A (P29375 whole entry, the tested form may be a part): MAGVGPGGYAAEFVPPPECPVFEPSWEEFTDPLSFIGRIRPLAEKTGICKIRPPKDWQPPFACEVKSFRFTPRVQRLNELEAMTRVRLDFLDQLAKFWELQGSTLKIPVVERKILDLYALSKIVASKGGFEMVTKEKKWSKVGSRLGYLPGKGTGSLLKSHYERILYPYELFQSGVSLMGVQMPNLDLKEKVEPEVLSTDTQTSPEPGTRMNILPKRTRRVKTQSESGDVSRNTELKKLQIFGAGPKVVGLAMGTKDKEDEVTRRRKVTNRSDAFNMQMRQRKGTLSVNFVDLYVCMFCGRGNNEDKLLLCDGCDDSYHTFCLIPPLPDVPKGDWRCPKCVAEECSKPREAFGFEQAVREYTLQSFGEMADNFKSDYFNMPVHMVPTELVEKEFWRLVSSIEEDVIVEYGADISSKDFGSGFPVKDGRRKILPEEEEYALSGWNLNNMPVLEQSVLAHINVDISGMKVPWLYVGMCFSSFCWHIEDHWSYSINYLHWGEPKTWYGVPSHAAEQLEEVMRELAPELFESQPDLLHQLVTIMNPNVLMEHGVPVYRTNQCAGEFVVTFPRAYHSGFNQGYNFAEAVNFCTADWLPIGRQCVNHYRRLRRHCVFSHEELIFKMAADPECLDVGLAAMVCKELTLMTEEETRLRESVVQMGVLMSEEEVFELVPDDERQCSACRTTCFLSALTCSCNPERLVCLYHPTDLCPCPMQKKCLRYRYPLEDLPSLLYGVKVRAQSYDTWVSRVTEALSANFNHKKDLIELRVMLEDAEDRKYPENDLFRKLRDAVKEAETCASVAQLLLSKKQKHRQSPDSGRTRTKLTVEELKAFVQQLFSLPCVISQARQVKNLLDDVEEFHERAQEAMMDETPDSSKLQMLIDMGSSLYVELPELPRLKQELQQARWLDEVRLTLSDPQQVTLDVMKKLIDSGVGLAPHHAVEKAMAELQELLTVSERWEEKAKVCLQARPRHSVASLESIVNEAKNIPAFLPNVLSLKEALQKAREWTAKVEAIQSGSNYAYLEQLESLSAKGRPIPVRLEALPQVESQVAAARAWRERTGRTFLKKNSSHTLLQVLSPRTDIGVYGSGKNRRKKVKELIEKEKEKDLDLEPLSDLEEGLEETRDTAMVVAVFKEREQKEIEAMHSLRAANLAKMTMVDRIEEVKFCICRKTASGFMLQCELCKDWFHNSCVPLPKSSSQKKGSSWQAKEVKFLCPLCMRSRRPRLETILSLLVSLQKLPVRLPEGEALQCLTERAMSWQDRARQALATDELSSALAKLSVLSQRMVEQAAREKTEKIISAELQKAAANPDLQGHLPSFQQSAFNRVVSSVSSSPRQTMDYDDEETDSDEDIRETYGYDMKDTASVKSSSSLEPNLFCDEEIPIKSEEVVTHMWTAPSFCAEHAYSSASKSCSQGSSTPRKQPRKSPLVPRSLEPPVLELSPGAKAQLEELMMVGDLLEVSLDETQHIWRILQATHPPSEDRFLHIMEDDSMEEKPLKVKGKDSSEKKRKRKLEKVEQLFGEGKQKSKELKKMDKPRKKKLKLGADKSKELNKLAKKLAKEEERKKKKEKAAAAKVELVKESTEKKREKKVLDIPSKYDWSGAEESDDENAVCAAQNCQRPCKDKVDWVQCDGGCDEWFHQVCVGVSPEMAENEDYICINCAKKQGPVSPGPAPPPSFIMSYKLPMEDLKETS

Structure (SMILES)	IC50 [1] [µM]	IC50 [2] [µM]	IC50 [3] [µM]	IC50 [4] [µM]	IC50 [5] [µM]
CC(=O)Nc1ccc(O)c(-c2cc(C(=O)O)ccn2)c1	33	72	> 500	> 100	240
Cc1cc(C(=O)Nc2ccc(O)c(-c3cc(C(=O)O)ccn3)c2)no1	5.7	2.7	473	31	23
COc1cccc(CC(=O)Nc2ccc(O)c(-c3cc(C(=O)O)ccn3)c2)c1	9	22	> 500	16	52
COCC(=O)Nc1ccc(O)c(-c2cc(C(=O)O)ccn2)c1	11	12	> 500	> 100	180
O=C(O)c1ccnc(-c2cc(NC(=O)c3ccc(O)cc3)ccc2O)c1	2.3	19	> 500	27	45
